{"source": "patent US10227610B2", "about": "“Methods and compositions for enhancing nuclease-mediated gene disruption” (SANGAMO THERAPEUTICS, INC., priority 2013, dated 2019)", "key": {"K562 cells [1]": {"tested_on": "K562 cells", "assay": "Targeted integration of AAVS1 oligo with double-stranded cleaving or nickase ZFNs, HindIII digestion", "format": "cell-based, human", "conditions": "NU1025 for 24 hr or 48 hr", "method": "In another experiment, K562 cells were treated with the PARP1 inhibitor NU1025. Briefly, two million K562 cells were nucleofected with 5 μg of double-stranded cleaving or nickase ZFNs specific for AAVS1 (U.S. Pat. No. 8,110,379) with or without 3 μl of an antisense AAVS1 oligo (100 μM). The cells were immediately treated with PARP inhibitor NU1025 after nucleofection for 24 hr or 48 hr. All cells were harvested 48 hr after nucleofection. 1.0 μg of PCR DNA was subjected to HindIII digestion."}, "K562 cells [2]": {"tested_on": "K562 cells", "assay": "ZFN-mediated targeted integration of ssOligo at CCR5 locus, RFLP assay and 96 colony sequencing", "format": "cell-based, human", "conditions": "Day 3; for effect on targeted integration: KU55933 10 μM, Olaparib 5 μM added to DNA-PKcs inhibitor", "method": "K562 cells were transfected by Amaxa® electroporation system with plasmid DNA encoding a CCR5-specific ZFN pair (see, U.S. Pat. No. 7,951,925) and a single-stranded oligonucleotide (ssOligo) (120 bp) which has homology to the target region and harbors a unique restriction site (Avr II). The cells then were treated twice with small molecule inhibitors described in Example 1 (outlined in FIG. 2A). In particular, the inhibitors Olaparib (PARP1/2-inhibitor) and NU7441 (DNA-PKcs-inhibitor) were added 5 hours after the ZFN-encoding DNA delivery at concentration of 5 μM and 3 μM, respectively. As a control, the ATM inhibitor KU55933 was added at a concentration of 10 μM. After 15 hours, fresh inhibitors were added to the medium to counteract the decay of the inhibitors in the cell culture medium. After a further 54 hours, the cells were harvested and genomic DNA was prepared for Day 3 analysis by Surveyor™/CelI assay, RFLP analysis and DNA sequencing.\nThe RFLP assay was carried out by digestion of the PCR amplified target locus with a restriction enzyme cutting in the integrated ssOligo. For DNA sequencing, the genomic target region of the ZFN was amplified by PCR, topo-cloned and 96 individual clones were sequenced."}, "Hepa 1-6 cells": {"tested_on": "Hepa 1-6 cells", "assay": "Mutagenic repair (% indels) after albumin-specific ZFN, Surveyor/CelI assay and clone sequencing", "format": "cell-based", "method": "In particular, the inhibitors Olaparib (PARP1-inhibitor) and NU7441 (DNA-PKcs inhibitor) were added 3 hours after mRNA delivery at concentration of 5 μM and 3-5 μM respectively. As a control, the ATM inhibitor KU55933 was added at a concentration of 10 μM (ATM has no direct role in DSB repair but is related to DNA-PKcs). After 15 hours, fresh inhibitors were added to the medium to counteract the decay of the inhibitors in the cell culture medium.\nAfter a further 54 hours, cells were harvested and genomic DNA was prepared for Day 3 analysis by Surveyor™/CelI assay and DNA sequencing. For DNA sequencing the genomic target region of the ZFN was amplified by PCR, topo-cloned and 96 individual clones were sequenced. The sequences were analyzed and the results used to divide the clones into groups by the genome type (e.g. wild type genomes, those with insertions and/or deletions, and those with other modifications). At Day 3 harvest about a third of the cells were re-seeded in fresh medium without inhibitors and were grown until day 10 when they were harvested and analyzed by Surveyor™/CelI assay."}, "HEK293 cells": {"tested_on": "HEK293 cells", "assay": "Targeted integration of ssDNA oligo donor at AAVS1 locus, RFLP", "format": "cell-based, human", "conditions": "NU7441 10 μM", "method": "We next used the inhibitors to measure their effect on targeted integration of single-stranded donors. Briefly, HEK293 and MCF7 cells were transfected with Nucleofector Kit V and MCF10A cells were transfected with Nuleofector™ Kit L on an Amaxa® instrument. The transfection components and their dosages were as follows: 0.8 million cells suspended in 100 μL of nucleofection solution; 3 μg each of two in vitro transcribed ZFN mRNAs engineered for inducing DSBs at the AAVS1 locus in human cells (see, e.g., U.S. Pat. No. 8,110,379); 0.3 nmol of a 100-nt ssDNAoligo donor. The oligo donor carried a HindIII restriction site at the position of 20 bp upstream of the ZFN cleavage site, and the HindIII site was used as marker for target integration analysis by RFLP. DNA-PKcs inhibitor NU7441 was added into 2 ml per well of pre-warmed culture medium in a 6-well plate at concentration of 10 μM for HEK293 and MCF7, and 15 or 20 μM for MCF10A before transfected cells were added into the medium. Cells were grown in the inhibitor-containing medium for 24 hours at 37° C. and 5% CO2. The medium was then replaced with fresh medium without inhibitor. DMSO was used as inhibitor blank control. For genomic DNA preparation, HEK293 and MCF10A cells were harvested 3 days after transfection, and MCF7 cells were harvested 5 days after nucleofection. […]"}, "CHO K1 cells": {"tested_on": "CHO K1 cells", "assay": "Targeted integration of double stranded donor at glutamine synthetase (GS) locus, RFLP", "format": "cell-based", "method": "The use of DNA PKcs inhibitors during insertion of a double stranded donor in CHO K1 cells was also tested. For this experiment, a donor that was delivered either via a plasmid (FIG. 4E) or via a PCR fragment (FIG. 4F). Briefly, CHO K1 cells were transfected with Nucleofector Kit V on an Amaxa® instrument. The transfection components and their dosages were as follows: one million CHO K1 cells suspended in 100 μl of Nucleofection™ Solution V; 4 μg each of two in vitro transcribed ZFN mRNAs engineered for inducing DSBs at the glutamine synthetase locus (GS) in CHO cells (see, e.g., U.S. Pat. No. 8,153,399); 2 μg (FIG. 4E) or 4 μg (FIG. 4F) of in vitro transcribed CHO or human Rad52 mRNA; 10 μg of plasmid donor (3.8 kb) or PCR fragment donor (1.1 kb). The plasmid donor and the PCR fragment donor both carried the same target integration sequence, containing two 500 bp homologous arms, two loxP sites, and a multiple cloning site.\nDNA-PKcs inhibitor NU7026 or NU7441 was added into 2 ml per well of pre-warmed culture medium in a 6-well plate at concentration of 20 μM or 16 respectively, before transfected cells were added into the medium. Cells were grown in the inhibitor-containing medium for 24 hours at 37° C. and 5% CO2. The medium was then replaced with fresh medium without inhibitor. DMSO was used as inhibitor blank control. […]"}, "K562 cells [3]": {"tested_on": "K562 cells", "assay": "Nickase ZFN with ssOligo at CCR5, Surveyor/CelI assay and sequencing", "format": "cell-based, human", "source_text": "K562 cells were transfected by Amaxa electroporation system with plasmid DNA encoding a CCR5-specific ZFN pair (see, U.S. Pat. No. 7,951,925) and a single-stranded oligonucleotide (ssOligo) (120 bp) which has homology to the target region and harbors a unique restriction site (Avr II). […] Due to the less deleterious nature of this kind of DNA damage, recombination events mediated by ssDNA breaks may be preferable over DSBs. However, the frequency of gene modification mediated via ssDNA breaks is very low. DNA-PKcs and PARP inhibitors were used in an attempt to increase the frequency of gene modification mediated via ssDNA breaks (“nicks”).\nBriefly, the transfected K562 cells were treated twice with either PARP1/2 inhibitor (Olaparib-5 μM) or DNA-PKcs inhibitor (NU7441-3 μM) 5 hours and 15 hours after transfection to counteract the decay of the inhibitors in the cell culture medium. After a further 54 hours, cells were harvested and genomic DNA was prepared for Day 3 analysis by Surveyor™/CelI assay, RFLP analysis and DNA sequencing as described in Example 1. The RFLP assay was carried out by digestion of the PCR amplified target locus with a restriction enzyme cutting in the integrated ssOligo. For DNA sequencing, the genomic target region of the ZFN was amplified by PCR, topo-cloned, and 96 individual clones were sequenced."}, "CD34+ cells": {"tested_on": "CD34+ cells", "assay": "Targeted integration of ssOligo at CCR5 in primary cells, clone sequencing", "format": "cell-based", "conditions": "NU7441 3 μM, Day 3; at the expense of 5-nucleotide duplications and deletions", "method": "Specifically, donor derived CD34+ cells were transfected 3 days after culture in medium suppressing differentiation. This was carried out by the BTX electroporation system with mRNA DNA encoding a CCR5-specific ZFN pair and a ssOligonucleotide (120 bp) which has homology to the target region and harbors a unique restriction site (Avr II). The cells were then treated twice with small molecule inhibitors as described in Example 1. In particular, the inhibitor NU7441 (DNA-PKcs-inhibitor) was added 3 hours after mRNA delivery at a concentration of 3 μM. After 15 hours, fresh inhibitors were added to the medium to counteract the decay of the inhibitors in the cell culture medium. After a further 54 hours, cells were harvested and genomic DNA was prepared for Day 3 analysis by DNA sequencing. For DNA sequencing the genomic target region of the ZFN was amplified by PCR, topo-cloned, and 96 individual clones were sequenced."}, "K562 cells [4]": {"tested_on": "K562 cells", "assay": "TALEN-mediated targeted integration at human CCR5 locus, deep sequencing", "format": "cell-based", "method": "See, e.g., U.S. Pat. No. 8,586,526. K562 cells were transfected by AMAXA with plasmid DNA encoding either hCCR5 TALENs or ZFNs and then the cells were treated with DMSO or DNA-PKcs inhibitor NU7441. Cells were harvested at Day 3 and Day 10 and genomic PCR was analyzed after PCR by deep sequencing."}}, "data": [{"smiles": "Cc1nc2c(O)cccc2c(=O)[nH]1", "note": "[NU1025]", "values": [{"measurement": "integration of AAVS1 oligo", "setting": "K562 cells [1]", "value": "detectable integration"}]}, {"smiles": "O=c1cc(-c2cccc3c2Sc2ccccc2S3)oc(N2CCOCC2)c1", "note": "[KU55933]", "values": [{"measurement": "effect on targeted integration", "setting": "K562 cells [2]", "value": "no effect"}, {"measurement": "effect on mutagenic repair", "setting": "Hepa 1-6 cells; KU55933 10 μM control", "value": "slight decrease"}]}, {"smiles": "O=c1cc(N2CCOCC2)oc2c(-c3cccc4c3sc3ccccc34)cccc12", "note": "[NU7441]", "values": [{"measurement": "targeted integration of a single stranded donor", "setting": "HEK293 cells", "value": "increased"}, {"measurement": "increase of PCR fragment donor-based target integration", "setting": "CHO K1 cells; PCR fragment donor", "value": "about 5 fold"}, {"measurement": "CelI signal (indels)", "setting": "K562 cells [3]; Nickase ZFNs co-transfected with ssOligo, NU7441 3 μM, Olaparib 5 μM", "value": 7, "unit": "%"}, {"measurement": "clones with non-WT sequence (perfect targeted integration of the ssOligo)", "setting": "K562 cells [3]; sequencing of 96 clones", "value": "one of 96"}, {"measurement": "targeted integration", "setting": "CD34+ cells", "value": "slight increase"}, {"measurement": "increase of targeted integration", "setting": "K562 cells [2]; NU7441 3 μM, RFLP and 96 colony sequencing", "value": "2-3 fold"}, {"measurement": "increase of mutagenic repair", "setting": "Hepa 1-6 cells; Day 10, after withdrawal of inhibitors", "value": "about 2 fold"}, {"measurement": "TALEN-mediated targeted integration", "setting": "K562 cells [4]; Day 3, vs DMSO", "value": "up to two fold"}, {"measurement": "share of all genome editing events that are targeted integrations", "setting": "K562 cells [4]; TALENs, after NU7441 treatment", "value": "more than half"}, {"measurement": "unwanted mutagenic events (Indels)", "setting": "K562 cells [4]; TALENs, after NU7441 treatment", "value": "drastically reduced"}]}, {"smiles": "O=C(c1cc(Cc2n[nH]c(=O)c3ccccc23)ccc1F)N1CCN(C(=O)C2CC2)CC1", "note": "[Olaparib]", "values": [{"measurement": "effect on targeted integration", "setting": "K562 cells [2]", "value": "did not further increase"}]}, {"smiles": "O=c1cc(N2CCOCC2)oc2c1ccc1ccccc12", "note": "[NU7026]", "values": [{"measurement": "plasmid donor-based target integration", "setting": "CHO K1 cells; NU7026 alone, 20 μM", "value": "no apparent increase"}]}]}
